Experiments:
[1] = target: T1, GABA-A receptor; anion channel (Rattus norvegicus) (UniProt O09028+P15431+P18506+P18508+P19969+P20236+P23574+P23576+P28471+P28473+P30191+P62813+P63079+P63138+Q91ZM7+Q9ES14); assay: In vitro displacement of [35S]TBPS from Gamma-aminobutyric acid A receptor of rat brain membrane preparations at 10 uM
[2] = target: T1, GABA-A receptor; anion channel (Rattus norvegicus); assay: In vitro displacement of [3H]muscimol from Gamma-aminobutyric acid A receptor of rat brain membrane preparations at 10 uM
[3] = target: T1, GABA-A receptor; anion channel (Rattus norvegicus); assay: In vitro displacement of [35S]TBPS from Gamma-aminobutyric acid A receptor of rat brain membrane preparations at 100 uM
[4] = target: T2, GABA-A receptor; alpha-1/beta-2/gamma-2 (Rattus norvegicus) (UniProt P18508+P62813+P63138); assay: (§1) Percent GABA current elicited in Xenopus laevis oocytes expressing rat GABA-A alpha-1-beta-2-gamma-2 subunits at 100 uM [(-)inhibition, (+)stimulation]; assay type: functional, cell-based; conditions: Oocyte
[5] = target: T1, GABA-A receptor; anion channel (Rattus norvegicus); assay: In vitro displacement of [3H]muscimol from Gamma-aminobutyric acid A receptor of rat brain membrane preparations at 100 uM
[6] = target: T1, GABA-A receptor; anion channel (Rattus norvegicus); assay: Displacement of [3H]flunitrazepam from GABA-A receptor of rat brain membrane preparations at 10 uM
[7] = target: T1, GABA-A receptor; anion channel (Rattus norvegicus); assay: Displacement of [3H]flunitrazepam from GABA-A receptor of rat brain membrane preparations at 100 uM
[8] = target: T1, GABA-A receptor; anion channel (Rattus norvegicus); assay: In vitro displacement of [35S]TBPS from Gamma-aminobutyric acid A receptor of rat brain membrane preparations at 100 uM (Limited solubility)
[9] = target: T2, GABA-A receptor; alpha-1/beta-2/gamma-2 (Rattus norvegicus); assay: Percent GABA current elicited in Xenopus laevis oocytes expressing rat GABA-A alpha-1-beta-2-gamma-2 subunits at 50 uM [(-)inhibition, (+)stimulation]; assay type: functional, cell-based; conditions: Oocyte
[10] = target: T1, GABA-A receptor; anion channel (Rattus norvegicus); assay: In vitro displacement of [3H]-muscimol from Gamma-aminobutyric acid A receptor of rat brain membrane preparations at 100 uM (Limited solubility)
[11] = target: GABA-A receptor; anion channel; assay: Displacement of [3H]flunitrazepam from GABA-A receptor of rat cerebellar tissue; assay type: protein-complex assay
[12] = target: GABA-A receptor; anion channel; assay: Displacement of [3H]flunitrazepam from GABA-A receptor of rat forebrain tissue
[13] = as §1; assay type: functional, Oocyte
[14] = target: T2, GABA-A receptor; alpha-1/beta-2/gamma-2 (Rattus norvegicus); assay: Percent GABA current elicited in Xenopus laevis oocytes expressing rat GABA-A alpha-1-beta-2-gamma-2 subunits at 10 uM [(-)inhibition, (+)stimulation]; assay type: functional, cell-based; conditions: Oocyte
[15] = target: T1, GABA-A receptor; anion channel (Rattus norvegicus); conditions: Brain, Membrane, 10 nM
Description: Displacement of [3H]flunitrazepam from GABA-A receptor of rat brain membrane preparations at 10 nM

[16] = target: T2, GABA-A receptor; alpha-1/beta-2/gamma-2 (Rattus norvegicus); conditions: Oocyte, 1 uM
Description: Percent GABA current elicited in Xenopus laevis oocytes expressing rat GABA-A alpha-1-beta-2-gamma-2 subunits at 1 uM [(-)inhibition, (+)stimulation]

[17] = target: T1, GABA-A receptor; anion channel (Rattus norvegicus); assay: Displacement of [3H]flunitrazepam from GABA-A receptor of rat brain membrane preparations at 100uM, Limited solubility

Compound | Displacement [1] [%] | Displacement [2] [%] | Displacement [3] [%] | GABA current [4] [%] | Displacement [5] [%] | Displacement [6] [%] | Displacement [7] [%] | further results
O=C1C=C[C@@H]([C@@H]2c3ccccc3CCN2C(=O)OCc2ccccc2)O1 | 14 | -12 | 82 | 281 | -13 | 93 |  | 
CN1CCc2cc3c(cc2[C@H]1[C@@H]1OC(=O)c2c1ccc1c2OCO1)OCO3 |  | 45 | -1 | -100 |  |  | 7 | 
O=C1C=C[C@H]([C@@H]2c3cc4c(cc3CCN2C(=O)OCc2ccccc2)OCO4)O1 | 18 | -7 |  |  |  | 27 |  | Displacement [8]: Insoluble; GABA current [9]: 128%; Displacement [10]: Insoluble
COc1cc2c(cc1OC)[C@@H]([C@H]1C=C(C)C(=O)O1)N(C)CC2 |  |  | 4 | -10 | -1 |  | 12 | 
CC1=C[C@@H]([C@@H]2c3ccccc3CCN2C(=O)OCc2ccccc2)OC1=O | 16 | -7 |  | 130 |  | 43 |  | IC50 [11]: 7 µM; IC50 [12]: 12 µM; Displacement [10]: Insoluble
COc1cc2c(cc1OC)[C@@H]([C@@H]1C=CC(=O)O1)N(C(=O)OCc1ccccc1)CC2 | 5 |  | 47 | 20 | -1 | 5 | 15 | 
COc1cc2c(cc1OC)[C@@H]([C@H]1C=CC(=O)O1)N(C(=O)OCc1ccccc1)CC2 | 5 | 7 | 50 | 43 | 10 | 15 | 51 | 
COc1cc2c(cc1OC)[C@@H]([C@H]1C=C(C)C(=O)O1)N(C(=O)OCc1ccccc1)CC2 |  |  | 63 | 60 | -23 |  | 31 | 
O=C1C=C[C@H]([C@@H]2c3ccccc3CCN2C(=O)OCc2ccccc2)O1 | 18 | -9 | 85 | 225 | -2 | 51 |  | 
CC1=C[C@@H]([C@@H]2c3cc4c(cc3CCN2C)OCO4)OC1=O |  |  | 3 |  | 3 |  | 21 | GABA current [13]: -3%
O=C1C=C[C@@H]([C@@H]2c3cc4c(cc3CCN2C(=O)OCc2ccccc2)OCO4)O1 | 19 | -5 |  |  |  | 20 |  | Displacement [8]: Insoluble; GABA current [9]: 215%; Displacement [10]: Insoluble
CC1=C[C@H]([C@@H]2c3cc4c(cc3CCN2C)OCO4)OC1=O | 1 |  | 3 | -7 | 5 | 6 | 30 | 
O=C1CC[C@@H]([C@@H]2c3ccccc3CCN2C(=O)OCc2ccccc2)O1 | 11 | -18 | 82 | 351 | -2 | 96 |  | IC50 [11]: 0.06 µM; IC50 [12]: 0.16 µM; GABA current [14]: 111%
CN1C(=O)CN=C(c2ccccc2)c2cc(Cl)ccc21 | 25 |  |  |  | -13 |  |  | Displacement [15]: 33%; GABA current [16]: 300%
COc1cc2c(cc1OC)[C@@H]([C@@H]1C=C(C)C(=O)O1)N(C(=O)OCc1ccccc1)CC2 |  |  | 11 | 24 | -1 |  | 4 | 
CC1=C[C@H]([C@@H]2c3ccccc3CCN2C(=O)OCc2ccccc2)OC1=O | 20 | -4 |  | 208 |  | 27 |  | IC50 [11]: 17 µM; IC50 [12]: 25 µM; Displacement [17]: Insoluble; Displacement [10]: Insoluble
COc1cc2c(cc1OC)[C@@H]([C@@H]1C=C(C)C(=O)O1)N(C)CC2 |  |  | 2 | -8 | 4 |  | 8 | 
